From ChEMBL document CHEMBL3632585, “Probing the S2' Subsite of the Anthrax Toxin Lethal Factor Using Novel N-Alkylated Hydroxamates” (J Med Chem, 2015)

Legend:
[1] = biological target: T1, Lethal factor (Bacillus anthracis, UniProt P15917); assay: Inhibition of Bacillus anthracis Lethal factor after 10 mins by mobility shift protease assay using 8 uM FITC as substrate
T1 sequence (P15917 whole entry): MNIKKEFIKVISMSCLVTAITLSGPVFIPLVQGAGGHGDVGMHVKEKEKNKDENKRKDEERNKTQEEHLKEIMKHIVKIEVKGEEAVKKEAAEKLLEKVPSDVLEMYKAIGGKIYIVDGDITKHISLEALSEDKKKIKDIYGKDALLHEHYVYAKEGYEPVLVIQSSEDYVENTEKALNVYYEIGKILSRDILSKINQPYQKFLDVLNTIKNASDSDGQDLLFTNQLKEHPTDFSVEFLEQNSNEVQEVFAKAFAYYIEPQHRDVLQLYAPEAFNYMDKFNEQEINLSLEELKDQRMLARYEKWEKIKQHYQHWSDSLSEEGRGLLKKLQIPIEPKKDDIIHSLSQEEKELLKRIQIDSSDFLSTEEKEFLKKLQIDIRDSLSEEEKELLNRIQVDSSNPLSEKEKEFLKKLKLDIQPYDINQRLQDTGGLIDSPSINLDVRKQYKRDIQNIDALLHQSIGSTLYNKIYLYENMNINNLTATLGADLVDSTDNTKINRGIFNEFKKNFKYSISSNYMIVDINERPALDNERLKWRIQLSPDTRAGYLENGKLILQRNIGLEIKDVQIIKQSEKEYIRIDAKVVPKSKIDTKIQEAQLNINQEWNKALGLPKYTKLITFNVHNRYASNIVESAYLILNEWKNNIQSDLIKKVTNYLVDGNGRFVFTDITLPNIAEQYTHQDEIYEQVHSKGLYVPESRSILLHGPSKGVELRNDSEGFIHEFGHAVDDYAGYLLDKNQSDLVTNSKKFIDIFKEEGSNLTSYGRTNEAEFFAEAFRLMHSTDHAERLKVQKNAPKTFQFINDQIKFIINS

[2] = biological target: T1, Lethal factor; assay: Inhibition of Bacillus anthracis Lethal factor after 5 mins by FRET assay

SMILES | IC50 [1] [µM] | IC50 [2] [µM]
Cc1cc(S(=O)(=O)N(CCCCCCCC(=O)O)[C@H](C)C(=O)NO)ccc1F | 47 | 91
CC(=O)NCCCCCCN([C@H](C)C(=O)NO)S(=O)(=O)c1ccc(F)c(C)c1 | 3.9 | 14
Cc1cc(S(=O)(=O)N(C(C)C)[C@H](C)C(=O)NO)ccc1F | > 100 | > 100
Cc1cc(S(=O)(=O)N[C@H](C)C(=O)NO)ccc1F | 0.5 | 1.6
Cc1cc(S(=O)(=O)N(Cc2ccc(F)cc2)[C@H](C)C(=O)NO)ccc1F | 11 | 29
CC(=O)Nc1cccc(CN([C@H](C)C(=O)NO)S(=O)(=O)c2ccc(F)c(C)c2)c1 | 4.8 | 21
Cc1cc(S(=O)(=O)N(Cc2ccccc2F)[C@H](C)C(=O)NO)ccc1F | 9.5 | 33
Cc1cc(S(=O)(=O)N(Cc2ccc(CCNC(=O)OC(C)(C)C)cc2)[C@H](C)C(=O)NO)ccc1F | 2.1 | 6.9
CC(=O)NCCCN([C@H](C)C(=O)NO)S(=O)(=O)c1ccc(F)c(C)c1 | 30 | 117
CC(=O)NCc1ccc(CN([C@H](C)C(=O)NO)S(=O)(=O)c2ccc(F)c(C)c2)cc1 | 3.5 | 16
Cc1cc(S(=O)(=O)N(Cc2ccc(N)cc2)[C@H](C)C(=O)NO)ccc1F | 6.4 | 29
Cc1cc(S(=O)(=O)N(Cc2ccc(CNC(=O)OC(C)(C)C)cc2)[C@H](C)C(=O)NO)ccc1F | 3.4 | 15
Cc1cc(S(=O)(=O)N(Cc2ccc(CN)cc2)[C@H](C)C(=O)NO)ccc1F | 1.3 | 5.6
CC(=O)NCc1cccc(CN([C@H](C)C(=O)NO)S(=O)(=O)c2ccc(F)c(C)c2)c1 | 4.7 | 15
Cc1cc(S(=O)(=O)N(C)[C@H](C)C(=O)NO)ccc1F | 9.6 | 37
Cc1cc(S(=O)(=O)N(CCCCCN)[C@H](C)C(=O)NO)ccc1F | 1.3 | 8.2
Cc1cc(S(=O)(=O)N(CCCN)[C@H](C)C(=O)NO)ccc1F | 3.7 | 12
Cc1cc(S(=O)(=O)N(CCCCCCN)[C@H](C)C(=O)NO)ccc1F | 1.1 | 4.4
CC(=O)NCCCCCN([C@H](C)C(=O)NO)S(=O)(=O)c1ccc(F)c(C)c1 | 4.3 | 19
Cc1cc(S(=O)(=O)N(Cc2cccc(CN)c2)[C@H](C)C(=O)NO)ccc1F | 1.7 | 10
CNC(=O)CCCCCCCN([C@H](C)C(=O)NO)S(=O)(=O)c1ccc(F)c(C)c1 | 9.3 | 19
Cc1cc(S(=O)(=O)N(CCOCc2ccccc2)[C@H](C)C(=O)NO)ccc1F | 14 | 57
Cc1cc(S(=O)(=O)N(CCCCCCCC(=O)OC(C)(C)C)[C@H](C)C(=O)NO)ccc1F | 3.2 | 8
Cc1cc(S(=O)(=O)N(Cc2c(F)cccc2F)[C@H](C)C(=O)NO)ccc1F | 13 | 42
Cc1cc(S(=O)(=O)N(Cc2ccc(CCN)cc2)[C@H](C)C(=O)NO)ccc1F | 1.2 | 8.9
Cc1cc(S(=O)(=O)N(CCCCN)[C@H](C)C(=O)NO)ccc1F | 1.8 | 7.4
Cc1cc(S(=O)(=O)N(Cc2cc(F)cc(F)c2)[C@H](C)C(=O)NO)ccc1F | 7 | 26
CC(=O)NCCc1ccc(CN([C@H](C)C(=O)NO)S(=O)(=O)c2ccc(F)c(C)c2)cc1 | 3.2 | 17
